What was measured:
[1] = system: ducksalad (Heteranthera limosa); experiment: Test B flooded paddy test, visual rating 0-100; conditions: Flood, 250 g ai/ha, applied to paddy water, rated after 13 to 15 days
[2] = system: barnyardgrass (Echinochloa crus-galli); experiment: Test A preemergence, visual injury rating 0-100 (0 no effect, 100 complete control); assay type: in vivo
kochia (Kochia scoparia) [3] = experiment: Test A preemergence, visual injury rating 0-100; assay type: in vivo
[4] = system: ryegrass, Italian (Italian ryegrass, Lolium multiflorum); experiment: Test A preemergence, visual injury rating 0-100; assay type: in vivo
[5] = system: ragweed (common ragweed, Ambrosia elatior); experiment: Test A preemergence, visual injury rating 0-100; assay type: in vivo
[6] = system: pigweed (Amaranthus retroflexus); experiment: Test A preemergence, visual injury rating 0-100; assay type: in vivo
[7] = system: foxtail, giant (giant foxtail, Setaria faberii); experiment: Test A preemergence, visual injury rating 0-100; assay type: in vivo
rice (Oryza sativa) = experiment: Test B flooded paddy test, visual rating 0-100 (0 no effect, 100 complete control); conditions: Flood, 250 g ai/ha, applied to paddy water, rated after 13 to 15 days
[8] = system: barnyardgrass (Echinochloa crus-galli); experiment: Test B flooded paddy test, visual rating 0-100; conditions: Flood, 250 g ai/ha, applied to paddy water, rated after 13 to 15 days
[9] = system: wheat (Triticum aestivum); experiment: Test A postemergence, visual injury rating 0-100; assay type: in vivo; conditions: 0 to 100 scale
corn (Zea mays) = experiment: Test A postemergence, visual injury rating 0-100; assay type: in vivo; conditions: 0 to 100 scale
kochia (Kochia scoparia) [10] = experiment: Test A postemergence, visual injury rating 0-100; assay type: in vivo; conditions: 0 to 100 scale
[11] = system: ryegrass, Italian (Italian ryegrass, Lolium multiflorum); experiment: Test A postemergence, visual injury rating 0-100; assay type: in vivo; conditions: 0 to 100 scale
[12] = system: blackgrass (Alopecurus myosuroides); experiment: Test A postemergence, visual injury rating 0-100; assay type: in vivo; conditions: 0 to 100 scale
[13] = system: ragweed (common ragweed, Ambrosia elatior); experiment: Test A postemergence, visual injury rating 0-100; assay type: in vivo; conditions: 0 to 100 scale
[14] = system: barnyardgrass (Echinochloa crus-galli); experiment: Test A postemergence, visual injury rating 0-100; assay type: in vivo; conditions: 0 to 100 scale
[15] = system: galium (catchweed bedstraw, Galium aparine); experiment: Test A postemergence, visual injury rating 0-100; assay type: in vivo; conditions: 0 to 100 scale
[16] = system: pigweed (Amaranthus retroflexus); experiment: Test A postemergence, visual injury rating 0-100; assay type: in vivo; conditions: 0 to 100 scale
[17] = system: foxtail, giant (giant foxtail, Setaria faberii); experiment: Test A postemergence, visual injury rating 0-100; assay type: in vivo; conditions: 0 to 100 scale

Structure (SMILES)	Ducksalad plant response rating (0 to 100 scale) [1]	Barnyardgrass plant response rating (0 to 100 scale) ([2]; 125 g ai/ha)	Barnyardgrass plant response rating (0 to 100 scale) ([2]; 500 g ai/ha)	Kochia plant response rating (0 to 100 scale) (kochia (Kochia scoparia) [3]; 125 g ai/ha)	Kochia plant response rating (0 to 100 scale) (kochia (Kochia scoparia) [3]; 500 g ai/ha)	Ryegrass, Italian plant response rating (0 to 100 scale) ([4]; 125 g ai/ha)	Ryegrass, Italian plant response rating (0 to 100 scale) ([4]; 500 g ai/ha)	Ragweed plant response rating (0 to 100 scale) ([5]; 125 g ai/ha)	Ragweed plant response rating (0 to 100 scale) ([5]; 500 g ai/ha)	Pigweed plant response rating (0 to 100 scale) ([6]; 125 g ai/ha)	Pigweed plant response rating (0 to 100 scale) ([6]; 500 g ai/ha)	Foxtail, Giant plant response rating (0 to 100 scale) ([7]; 125 g ai/ha)	Foxtail, Giant plant response rating (0 to 100 scale) ([7]; 500 g ai/ha)	Rice plant response rating (0 to 100 scale) (rice (Oryza sativa))	Barnyardgrass plant response rating (0 to 100 scale) [8]	Wheat plant response rating ([9]; 125 g ai/ha)	Wheat plant response rating ([9]; 500 g ai/ha)	Corn plant response rating (corn (Zea mays); 125 g ai/ha)	Corn plant response rating (corn (Zea mays); 500 g ai/ha)	Kochia plant response rating (kochia (Kochia scoparia) [10]; 125 g ai/ha)	also measured
CC1=[N+]([O-])C(C(=O)Nc2cccc(F)c2F)C(c2cc(F)c(F)c(F)c2)C1 (centres unmarked) [Compound 95]	100	90	90	0	70	30	90	20	80	20	80	90	100	0	80	10	60	0	50	30	Kochia plant response rating (kochia (Kochia scoparia) [10]; 500 g ai/ha): 50; Ryegrass, Italian plant response rating ([11]; 125 g ai/ha): 40; Ryegrass, Italian plant response rating ([11]; 500 g ai/ha): 70; Blackgrass plant response rating ([12]; 125 g ai/ha): 60; Blackgrass plant response rating ([12]; 500 g ai/ha): 70; Ragweed plant response rating ([13]; 125 g ai/ha): 0; Ragweed plant response rating ([13]; 500 g ai/ha): 20; Barnyardgrass plant response rating ([14]; 125 g ai/ha): 70; Barnyardgrass plant response rating ([14]; 500 g ai/ha): 80; Galium plant response rating ([15]; 125 g ai/ha): 0; Galium plant response rating ([15]; 500 g ai/ha): 50; Pigweed plant response rating ([16]; 125 g ai/ha): 0; Pigweed plant response rating ([16]; 500 g ai/ha): 20; Foxtail, Giant plant response rating ([17]; 125 g ai/ha): 80; Foxtail, Giant plant response rating ([17]; 500 g ai/ha): 90
COc1cc(OC)cc(C2CC(C)=[N+]([O-])C2C(=O)Nc2cccc(F)c2F)c1 (centres unmarked) [Compound 96]	0	90	100	0	40	0	0	0	0	0	10	90	90	0	0	0	10	10	70	0	Kochia plant response rating (kochia (Kochia scoparia) [10]; 500 g ai/ha): 0; Ryegrass, Italian plant response rating ([11]; 125 g ai/ha): 0; Ryegrass, Italian plant response rating ([11]; 500 g ai/ha): 60; Blackgrass plant response rating ([12]; 125 g ai/ha): 40; Blackgrass plant response rating ([12]; 500 g ai/ha): 90; Ragweed plant response rating ([13]; 125 g ai/ha): 0; Ragweed plant response rating ([13]; 500 g ai/ha): 30; Barnyardgrass plant response rating ([14]; 125 g ai/ha): 60; Barnyardgrass plant response rating ([14]; 500 g ai/ha): 90; Galium plant response rating ([15]; 125 g ai/ha): 0; Galium plant response rating ([15]; 500 g ai/ha): 20; Pigweed plant response rating ([16]; 125 g ai/ha): 0; Pigweed plant response rating ([16]; 500 g ai/ha): 0; Foxtail, Giant plant response rating ([17]; 125 g ai/ha): 40; Foxtail, Giant plant response rating ([17]; 500 g ai/ha): 90
CC1=[N+]([O-])C(C(=O)Nc2cccc(F)c2F)C(c2ccccc2)C1 (centres unmarked) [Compound 97]	100	90	100	50	60	20	90	40	90	0	60	90	90	0	70	10	30	0	0	0	Kochia plant response rating (kochia (Kochia scoparia) [10]; 500 g ai/ha): 50; Ryegrass, Italian plant response rating ([11]; 125 g ai/ha): 0; Ryegrass, Italian plant response rating ([11]; 500 g ai/ha): 50; Blackgrass plant response rating ([12]; 125 g ai/ha): 30; Blackgrass plant response rating ([12]; 500 g ai/ha): 70; Ragweed plant response rating ([13]; 125 g ai/ha): 0; Ragweed plant response rating ([13]; 500 g ai/ha): 20; Barnyardgrass plant response rating ([14]; 125 g ai/ha): 70; Barnyardgrass plant response rating ([14]; 500 g ai/ha): 90; Galium plant response rating ([15]; 125 g ai/ha): 30; Galium plant response rating ([15]; 500 g ai/ha): 50; Pigweed plant response rating ([16]; 125 g ai/ha): 0; Pigweed plant response rating ([16]; 500 g ai/ha): 0; Foxtail, Giant plant response rating ([17]; 125 g ai/ha): 60; Foxtail, Giant plant response rating ([17]; 500 g ai/ha): 90
CC1=[N+]([O-])C(C(=O)Nc2cccc(F)c2F)C(c2cc(C(F)(F)F)ccc2C)C1 (centres unmarked) [Compound 98]	100	90	90	10	80	90	100	20	80	0	70	90	100	0	55	60	70	60	80	0	Kochia plant response rating (kochia (Kochia scoparia) [10]; 500 g ai/ha): 0; Ryegrass, Italian plant response rating ([11]; 125 g ai/ha): 40; Ryegrass, Italian plant response rating ([11]; 500 g ai/ha): 70; Blackgrass plant response rating ([12]; 125 g ai/ha): 70; Blackgrass plant response rating ([12]; 500 g ai/ha): 70; Ragweed plant response rating ([13]; 125 g ai/ha): 30; Ragweed plant response rating ([13]; 500 g ai/ha): 30; Barnyardgrass plant response rating ([14]; 125 g ai/ha): 70; Barnyardgrass plant response rating ([14]; 500 g ai/ha): 90; Galium plant response rating ([15]; 125 g ai/ha): 0; Galium plant response rating ([15]; 500 g ai/ha): 40; Pigweed plant response rating ([16]; 125 g ai/ha): 0; Pigweed plant response rating ([16]; 500 g ai/ha): 30; Foxtail, Giant plant response rating ([17]; 125 g ai/ha): 80; Foxtail, Giant plant response rating ([17]; 500 g ai/ha): 90

From US11498899B2, “Nitrone herbicides” (FMC Corporation, priority 2016, dated 2022)
